Where two headings read alike, the source gives them in different places.
Target: T1, recombinant full-length USP7 (Homo sapiens, UniProt Q93009)
T1 construct: A 25 μl reaction volume containing recombinant full-length USP7 (62 pM)
Assay: USP7-mediated ubiquitin-rhodamine cleavage assay
Assay type: biochemical
Conditions: recombinant full-length USP7 62 pM, ubiquitin-rhodamine 100 nM, 1 hour reaction at room temperature
In short: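 Enzyme 62 pM; HEPES pH 7.3/150 mM NaCl/1 mM TCEP/125 μg/ml BSA; 1% DMSO; 30 min cpd preinc RT; Ub-rhodamine 100 nM, 1 h RT, dark; acetic acid stop; fluorescence; IC50 4-param fit.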

[1] = 30-minute incubation with compound, read-out: Potency: USP7 IC50
[2] = 30-minute pre-incubation, read-out: Potency (USP7 IC50)

T1 sequence (Q93009 whole entry): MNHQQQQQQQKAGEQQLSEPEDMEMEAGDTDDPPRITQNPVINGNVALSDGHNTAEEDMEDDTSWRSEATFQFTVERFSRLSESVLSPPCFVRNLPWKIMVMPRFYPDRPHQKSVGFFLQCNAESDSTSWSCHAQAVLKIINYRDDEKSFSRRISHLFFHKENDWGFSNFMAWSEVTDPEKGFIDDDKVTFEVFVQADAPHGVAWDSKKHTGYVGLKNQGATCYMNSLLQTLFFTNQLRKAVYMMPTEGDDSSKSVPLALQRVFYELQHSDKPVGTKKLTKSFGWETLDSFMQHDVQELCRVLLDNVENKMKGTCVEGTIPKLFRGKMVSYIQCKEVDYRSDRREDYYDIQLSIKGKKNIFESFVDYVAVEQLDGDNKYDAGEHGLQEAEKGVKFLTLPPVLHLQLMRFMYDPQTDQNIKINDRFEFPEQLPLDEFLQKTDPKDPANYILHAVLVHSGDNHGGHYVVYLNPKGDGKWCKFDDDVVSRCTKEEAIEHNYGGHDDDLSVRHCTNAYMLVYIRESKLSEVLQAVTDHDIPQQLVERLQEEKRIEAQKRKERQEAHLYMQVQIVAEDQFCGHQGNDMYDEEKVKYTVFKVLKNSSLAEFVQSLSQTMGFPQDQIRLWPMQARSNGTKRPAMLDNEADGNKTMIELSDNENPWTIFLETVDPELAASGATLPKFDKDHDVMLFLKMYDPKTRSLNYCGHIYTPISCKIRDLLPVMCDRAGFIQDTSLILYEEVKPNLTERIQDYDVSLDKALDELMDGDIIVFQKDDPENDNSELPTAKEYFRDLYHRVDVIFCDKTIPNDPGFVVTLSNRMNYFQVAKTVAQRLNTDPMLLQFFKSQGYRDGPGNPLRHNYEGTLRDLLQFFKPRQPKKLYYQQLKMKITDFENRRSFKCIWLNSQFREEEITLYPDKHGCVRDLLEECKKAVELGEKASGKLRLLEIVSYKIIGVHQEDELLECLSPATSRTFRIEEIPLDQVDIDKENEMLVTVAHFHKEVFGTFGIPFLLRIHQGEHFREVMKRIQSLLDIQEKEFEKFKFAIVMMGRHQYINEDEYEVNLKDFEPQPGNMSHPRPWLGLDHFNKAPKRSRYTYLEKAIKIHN

Compound	IC50 [1] [µM]	IC50 [2] [µM]
Cc1cc(Cl)cc(-c2ccnc3cc(CN4C(=O)C5C(C4=O)C5(C)C)sc23)c1O[C@@H]1CNC[C@@H]1F (stereo partly drawn) [Example 312, 3-[[7-[5-chloro-2-[(3R,4S)-4-fluoropyrrolidin-3-yl]oxy-3-methyl-phenyl]thieno[3,2-b]pyridin-2-yl]methyl]-6,6-dimethyl-3-azabicyclo[3.1.0]hexane-2,4-dione]	< 1	
Cc1cc(Cl)cc(-c2ccnc3cc(CN4C(=O)CCC4=O)sc23)c1OC1CNCc2ccccc21 (stereo not shown) [Example 429, 1-[[7-[5-chloro-3-methyl-2-(1,2,3,4-tetrahydroisoquinolin-4-yloxy)phenyl]thieno[3,2-b]pyridin-2-yl]methyl]pyrrolidine-2,5-dione]		< 1
CC[C@@H](c1cc2nccc(-c3cc(Cl)cc(C)c3O[C@@H]3CNC[C@@H]3F)c2s1)N1C(=O)CCC1=O [Example 137, 1-((S)-1-(7-(5-Chloro-2-(((3R,4S)-4-fluoropyrrolidin-3-yl)oxy)-3-methylphenyl)thieno[3,2-b]pyridin-2-yl)propyl)pyrrolidine-2,5-dione]	< 1	
Cc1cc(Cl)cc(-c2ccnc3cc(Cn4c(=O)ccn(C)c4=O)sc23)c1O[C@H]1CCN(CCO)C[C@@H]1F [Example 483, 3-[[7-[5-chloro-2-[[(3S,4S)-3-fluoro-1-(2-hydroxyethyl)-4-piperidyl]oxy]-3-methyl-phenyl]thieno[3,2-b]pyridin-2-yl]methyl]-1-methyl-pyrimidine-2,4-dione; 2,2,2-trifluoroacetic acid]		< 1
Cc1cc(Cl)cc(-c2ccnc3cc(COc4nc(=O)ccn4CC(F)(F)F)sc23)c1O[C@H]1CNCC[C@H]1C [Example 615, 2-[[7-[5-chloro-3-methyl-2-[[(3R,4R)-4-methyl-3-piperidyl]oxy]phenyl]thieno[3,2-b]pyridin-2-yl]methoxy]-1-(2,2,2-trifluoroethyl)pyrimidin-4-one]		< 1
Cc1cc(Cl)cc(-c2ccnc3cc(CN4C(=O)CCC4=O)sc23)c1OCC1(C#N)CNC1 [Example 12, 3-((4-Chloro-2-(2-((2,5-dioxopyrrolidin-1-yl)methyl)thieno[3,2-b]pyridin-7-yl)-6-methylphenoxy)methyl)azetidine-3-carbonitrile]	< 1	
Cc1cc(Cl)cc(-c2ccnc3cc(Cn4c(=O)ccn(C)c4=O)sc23)c1O[C@@H]1CC[C@](C)(N)C1 [Example 519, 3-[[7-[2-[(1R,3S)-3-amino-3-methyl-cyclopentoxy]-5-chloro-3-methyl-phenyl]thieno[3,2-b]pyridin-2-yl]methyl]-1-methyl-pyrimidine-2,4-dione; 2,2,2-trifluoroacetic acid]		< 1
Cc1cc(Cl)cc(-c2ccnc3cc(Cn4c(=O)ccn(CC(F)(F)F)c4=O)sc23)c1O[C@@H]1CCNC[C@@]1(C)F [Example 276, 3-((7-(5-Chloro-2-(((3R,4R)-3-fluoro-3-methylpiperidin-4-yl)oxy)-3-methylphenyl)thieno[3,2-b]pyridin-2-yl)methyl)-1-(2,2,2-trifluoroethyl)pyrimidine-2,4(1H,3H)-dione]	< 1	
Cc1cc([N+](=O)[O-])cc(-c2ccnc3cc(Cn4c(=O)ccn(C)c4=O)sc23)c1O[C@H]1CCCNC1 [Example 573, 1-methyl-3-[[7-[3-methyl-5-nitro-2-[[(3S)-3-piperidyl]oxy]phenyl]thieno[3,2-b]pyridin-2-yl]methyl]pyrimidine-2,4-dione; 2,2,2-trifluoroacetic acid]		< 1
Cc1cc(Cl)cc(-c2ncnc3cc(Cn4c(=O)ccn(C(C)C)c4=O)sc23)c1O[C@H]1CCNC[C@@H]1F [Example 564, 3-[[4-[5-chloro-2-[[(3S,4S)-3-fluoro-4-piperidyl]oxy]-3-methyl-phenyl]thieno[3,2-d]pyrimidin-6-yl]methyl]-1-isopropyl-pyrimidine-2,4-dione]		< 1
Cc1cc(Cl)cc(-c2ccnc3cc(Cn4c(=O)ccn(C)c4=O)sc23)c1O[C@@H]1CCN(CCO)C[C@@H]1C [Example 475, 3-[[7-[5-chloro-2-[[(3S,4R)-1-(2-hydroxyethyl)-3-methyl-4-piperidyl]oxy]-3-methyl-phenyl]thieno[3,2-b]pyridin-2-yl]methyl]-1-methyl-pyrimidine-2,4-dione]		< 1
Cc1cc(Cl)cc(-c2ccnc3cc(CN4C(=O)CCC4=O)sc23)c1O[C@@H]1CN[C@H](CO)C1 [Example 116, 1-((7-(5-Chloro-2-(((3S,5S)-5-(hydroxymethyl)pyrrolidin-3-yl)oxy)-3-methylphenyl)thieno[3,2-b]pyridin-2-yl)methyl)pyrrolidine-2,5-dione]	< 1	
Cc1cc(Cl)cc(-c2ccnc3cc(CN4C(=O)CCC4=O)sc23)c1O[C@@H]1CN[C@@H](C)C1 [Example 99, 1-((7-(5-Chloro-3-methyl-2-(((3S,5S)-5-methylpyrrolidin-3-yl)oxy)phenyl)thieno[3,2-b]pyridin-2-yl)methyl)pyrrolidine-2,5-dione]	< 1	
Cc1cc(Cl)cc(-c2ccnc3cc(Cn4c(=O)ccn(C)c4=O)sc23)c1O[C@H]1CCNC[C@]1(C)F [Example 545, 3-[[7-[5-chloro-2-[[(3S,4S)-3-fluoro-3-methyl-4-piperidyl]oxy]-3-methyl-phenyl]thieno[3,2-b]pyridin-2-yl]methyl]-1-methyl-pyrimidine-2,4-dione; 2,2,2-trifluoroacetic acid]		< 1
Cc1cc(Cl)cc(-c2ccnc3cc(CN4C(=O)CCC4=O)sc23)c1O[C@H]1C[C@H]2CC[C@@H](C1)N2 [Example 214, 1-((7-(2-(((1R,3r,5S)-8-Azabicyclo[3.2.1]octan-3-yl)oxy)-5-chloro-3-methylphenyl)thieno[3,2-b]pyridin-2-yl)methyl)pyrrolidine-2,5-dione]	< 1	
Cc1cc(Cl)cc(-c2ccnc3cc(CN4C(=O)C5CCC5C4=O)sc23)c1O[C@@H]1CN(C(=O)OC(C)(C)C)C[C@@H]1F (stereo partly drawn) [Example 355, tert-butyl (3R,4S)-3-[4-chloro-2-[2-[(2,4-dioxo-3-azabicyclo[3.2.0]heptan-3-yl)methyl]thieno[3,2-b]pyridin-7-yl]-6-methyl-phenoxy]-4-fluoro-pyrrolidine-1-carboxylate; 2,2,2-trifluoroacetic acid]	< 1	
Cc1cc(Cl)cc(-c2ccnc3cc(Cn4c(=O)ccn(CC(F)(F)F)c4=O)sc23)c1O[C@@H]1C=C[C@@H](N)C1 [Example 630, 3-[[7-[2-[(1S,4S)-4-aminocyclopent-2-en-1-yl]oxy-5-chloro-3-methyl-phenyl]thieno[3,2-b]pyridin-2-yl]methyl]-1-(2,2,2-trifluoroethyl)pyrimidine-2,4-dione]		< 1
CCC(O)c1cc2nccc(-c3cc(Cl)cc(C)c3OC3CCCNCC3)c2s1 (stereo not shown) [Example 267, 1-(7-(2-(Azepan-4-yloxy)-5-chloro-3-methylphenyl)thieno[3,2-b]pyridin-2-yl)propan-1-ol]	1 to 10	
Cc1cc(Cl)cc(-c2ccnc3cc(Cn4c(=O)c(C)cn(CC(F)(F)F)c4=O)sc23)c1O[C@H]1CCCNC1 [Example 557, 3-[[7-[5-chloro-3-methyl-2-[[(3S)-3-piperidyl]oxy]phenyl]thieno[3,2-b]pyridin-2-yl]methyl]-5-methyl-1-(2,2,2-trifluoroethyl)pyrimidine-2,4-dione]		< 1

Reference: patent US10722514B2 (FLX Bio, Inc., priority 2017, dated 2020)
